Like-named read-outs stand apart in the source and are kept apart here.
Key:
[1] = system: porcine embryo kidney cells (SPEV); experiment: Cytotoxic properties on SPEV cell culture; type: cell-based; conditions: for Percentage of died cells on exposure with different concentrations of the preparation during 48 hours: SPEV
Description: Cultures of reinoculated porcine embryo kidney cells (SPEV), highly sensitive to the pathogenic action of HSV, obtained from “Narva” Company (Russia) were employed. These cultures were used in the form of a one day monolayer of cells, grown in 24-cell plastic plates. The cultures of SPEV cells were grown on medium 199 with 10% of fetal calf serum with addition of glutamine and antibiotics (100 U/ml).
For studying the antiviral activity of the preparation, the preparation was introduced in various concentrations into the SPEV cell cultures at the moment of infection and in 24 hours after the infection with hepatitis C virus on the cell in 24-cell plastic culture plates.

Hep 2 cells = experiment: Apoptosis signs in Hep 2 cells (DNA fragmentation, Fas-antigen mRNA forms); type: cell-based, human; conditions: for Redistribution of soluble and membrane Fas-antigen mRNA forms indicative of Fas-dependent apoptosis: 10, 50, 100 μg/ml
Source text: A reduction in the intensity of protein profiles was observed on the second day and most dramatically on the seventh day at the studied concentrations of the preparation as compared with control. This can be indicative of a reduction in the number of cells because of inhibition of the mitotic activity of cells in the presence of the preparation. On the 7th day of the action of the preparation a reduction in the number of DNA compared with control was observed. Checking for the presence of DNA fragmentation has shown its absence, i.e., apoptosis manifestations were not detected.
For establishing the influence of the preparation on intracellular biosynthetic processes, we have analyzed the synthesis and maturing in the Hep 2 cells of Fas-antigen mRNA. Fas-antigen is a receptor protein of the signal of programmed death of cells—apoptosis—and it can exist in two forms: in membrane form and in soluble form. It has been shown that in the presence of the preparation there occurs redistribution of the alternative forms of the Fas-antigen mRNA, this being indicative of the influence of the preparation on the biosynthetic processes in Hep 2 cells on the transcripton level; however, reconstructions indicative of the feasibility of Fas-dependent apoptosis are absent (FIG. 8).

HIV-1 = conditions: for Protection of MT-4 cells against viral cytopathic action of HIV-1: HIV-1 100 TCD50
Description: Cells Reinoculated humans lymphoblastoid cells MT-4 were used. […] The viability of the cells was determined from the color of a 0.4% solution of trypan blue.
Retrovir (azidothymidin) produced by GlaxoWellcome (Great Britain) was used as positive control.
The Antiviral activity of the preparations was investigated on a model of lymphoblastoid cells in a plastic 24-cell plate. The virus dose was 100 TCD50 (50% tissue cytopathic dose). […] The activity of the preparation was determined from the inhibition of the virus-induced cytopathic action (CPA) in the cell cultures and the virus antigen level in the culture fluid by immunoenzymatic analysis.

[2] = 0.25 μg/ml, HIV-1-infected lymphoblastoid cells, 5th day
[3] = 0.5 μg/ml, HIV-1-infected lymphoblastoid cells, 5th day
[4] = 1 μg/ml, 2 hrs of contact, washing off of cells No, 6th day
[5] = 1 μg/ml, 2 hrs of contact, washing off of cells Yes, 6th day
[6] = 1.0 μg/ml, HIV-1-infected lymphoblastoid cells, 5th day
[7] = 1 μg/ml, exposure 1 hr, washing off of cells Yes, 6th day
[8] = 1 μg/ml, exposure 2 hrs, washing off of cells Yes, 6th day
[9] = 1 μg/ml, exposure 24 hrs, washing off of cells Yes, 6th day
[10] = 1 μg/ml, exposure during the entire experiment, washing off of cells No, 6th day
[11] = 10 μg/ml, 2 hrs of contact, washing off of cells No, 6th day
[12] = 10 μg/ml, 2 hrs of contact, washing off of cells Yes, 6th day
[13] = 10 μg/ml, HIV-1-infected lymphoblastoid cells, 5th day
[14] = 10 μg/ml, exposure 2 hrs (first such line, r25), washing off of cells Yes, 6th day
[15] = 10 μg/ml, exposure 2 hrs (second such line, r29), washing off of cells Yes, 6th day
[16] = 10 μg/ml, exposure 24 hrs, washing off of cells Yes, 6th day
[17] = 10 μg/ml, exposure during the entire experiment, washing off of cells No, 6th day
[18] = 100 μg/ml, HIV-1-infected lymphoblastoid cells, 5th day
[19] = preparation 1 hr after infecting, HIV-1
[20] = preparation 2 hrs before infecting, HIV-1
[21] = preparation + virus simultaneously, HIV-1

Substance: sodium salt of fullerene-polyamino-caproic acid
- Percentage of died cells on exposure with different concentrations of the preparation during 48 hours ([1]; 6.25 (in μg)): 0%
- Percentage of died cells on exposure with different concentrations of the preparation during 48 hours ([1]; 12.5 (in μg)): 0%
- Percentage of died cells on exposure with different concentrations of the preparation during 48 hours ([1]; 25 (in μg)): 0%
- Percentage of died cells on exposure with different concentrations of the preparation during 48 hours ([1]; 50 (in μg)): 0%
- Percentage of died cells on exposure with different concentrations of the preparation during 48 hours ([1]; 100 (in μg)): 0%
- Cytotoxic properties for SPEV cell cultures ([1]; concentration of up to 100 μg/ml): does not have cytotoxic properties
- DNA fragmentation (apoptosis manifestations) (Hep 2 cells): not recorded
- Redistribution of soluble and membrane Fas-antigen mRNA forms indicative of Fas-dependent apoptosis (Hep 2 cells): no redistribution
- Redistribution of soluble and membrane Fas-antigen mRNA forms indicative of Fas-dependent apoptosis (Hep 2 cells; listed as preparation): absent
- DNA fragmentation (apoptosis manifestations) (Hep 2 cells; listed as preparation): absence
- CPE/syncytia, % (HIV-1; [2]): 50%
- Number of cells in 1 ml × 1000 (HIV-1; [2]): 1000 in 1 ml × 1000
- CPE/syncytia, % (HIV-1; [3]): 25%
- Number of cells in 1 ml × 1000 (HIV-1; [3]): 1299 in 1 ml × 1000
- CPE/syncytia, + (HIV-1; [4]): 0 +
- Number of cells × 10^3 ml (HIV-1; [4]): 2200 × 10^3 ml
- CPE/syncytia, + (HIV-1; 1 μg/ml, 2 hrs of contact, washing off of cells No, 8th day): 0 +
- CPE/syncytia, + (HIV-1; [5]): 2.5+
- Number of cells × 10^3 ml (HIV-1; [5]): 1700 × 10^3 ml
- CPE/syncytia, + (HIV-1; 1 μg/ml, 2 hrs of contact, washing off of cells Yes, 8th day): 3.5+
- Protection of MT-4 cells against viral cytopathic action of HIV-1 (HIV-1; 1 μg/ml): full protection
- Protection of MT-4 cells against viral cytopathic action of HIV-1 (HIV-1; 1 μg/ml, listed as sodium salt of fullerene-polyamino-propanoic acid): Full protection
- CPE/syncytia, % (HIV-1; [6]): 0%
- Number of cells in 1 ml × 1000 (HIV-1; [6]): 1466 in 1 ml × 1000
- CPE/syncytia, + (HIV-1; [7]): 0.5+
- Number of cells × 10^3 ml (HIV-1; [7]): 2000 × 10^3 ml
- CPE/syncytia, + (HIV-1; 1 μg/ml, exposure 1 hr, washing off of cells Yes, 8th day): 1.5+
- CPE/syncytia, + (HIV-1; [8]): 0.5+
- Number of cells × 10^3 ml (HIV-1; [8]): 1700 × 10^3 ml
- CPE/syncytia, + (HIV-1; 1 μg/ml, exposure 2 hrs, washing off of cells Yes, 8th day): 1+
- CPE/syncytia, + (HIV-1; [9]): 0.1+
- Number of cells × 10^3 ml (HIV-1; [9]): 2100 × 10^3 ml
- CPE/syncytia, + (HIV-1; 1 μg/ml, exposure 24 hrs, washing off of cells Yes, 8th day): 0.5+
- CPE/syncytia, + (HIV-1; [10]): 0 +
- Number of cells × 10^3 ml (HIV-1; [10]): 2300 × 10^3 ml
- CPE/syncytia, + (HIV-1; 1 μg/ml, exposure during the entire experiment, washing off of cells No, 8th day): 0 +
- CPE/syncytia, + (HIV-1; [11]): 0 +
- Number of cells × 10^3 ml (HIV-1; [11]): 2600 × 10^3 ml
- CPE/syncytia, + (HIV-1; 10 μg/ml, 2 hrs of contact, washing off of cells No, 8th day): 0 +
- CPE/syncytia, + (HIV-1; [12]): 1.75+
- Number of cells × 10^3 ml (HIV-1; [12]): 1500 × 10^3 ml
- CPE/syncytia, + (HIV-1; 10 μg/ml, 2 hrs of contact, washing off of cells Yes, 8th day): 3.0+
- CPE/syncytia, % (HIV-1; [13]): 0%
- Number of cells in 1 ml × 1000 (HIV-1; [13]): 1633 in 1 ml × 1000
- CPE/syncytia, + (HIV-1; [14]): 0 +
- Number of cells × 10^3 ml (HIV-1; [14]): 2300 × 10^3 ml
- CPE/syncytia, + (HIV-1; 10 μg/ml, exposure 2 hrs (first such line, r25), washing off of cells Yes, 8th day): 0 +
- CPE/syncytia, + (HIV-1; [15]): 0 +
- Number of cells × 10^3 ml (HIV-1; [15]): 1800 × 10^3 ml
- CPE/syncytia, + (HIV-1; 10 μg/ml, exposure 2 hrs (second such line, r29), washing off of cells Yes, 8th day): 0 +
- CPE/syncytia, + (HIV-1; [16]): 0 +
- Number of cells × 10^3 ml (HIV-1; [16]): 2300 × 10^3 ml
- CPE/syncytia, + (HIV-1; 10 μg/ml, exposure 24 hrs, washing off of cells Yes, 8th day): 0 +
- CPE/syncytia, + (HIV-1; [17]): 0 +
- Number of cells × 10^3 ml (HIV-1; [17]): 2500 × 10^3 ml
- CPE/syncytia, + (HIV-1; 10 μg/ml, exposure during the entire experiment, washing off of cells No, 8th day): 0 +
- CPE/syncytia, % (HIV-1; [18]): 0%
- Number of cells in 1 ml × 1000 (HIV-1; [18]): 1500 in 1 ml × 1000
- CPE/syncytia, % (HIV-1; [19]): 0%
- Number of cells in 1 ml × 1000 (HIV-1; [19]): 1100 in 1 ml × 1000
- CPE/syncytia, % (HIV-1; [20]): 0%
- Number of cells in 1 ml × 1000 (HIV-1; [20]): 1100 in 1 ml × 1000
- CPE/syncytia, % (HIV-1; [21]): 0%
- Number of cells in 1 ml × 1000 (HIV-1; [21]): 1100 in 1 ml × 1000

From patent US20060122276A1, “Agent for inhibiting membrane virus reproduction, method for the production thereof, pharmaceutical composition and method for inhibiting viral infections” (priority 2003, published 2006)
